Source: patent US6461997B1, “Triazole sulfones having herbicidal activity” (Monsanto Technology LLC, priority 1999, dated 2002)

Key:
SASKR (russian thistle) = assay: Pre-emergence herbicidal activity, cool season; format: in vivo, Salsola kali; conditions: lowest tested rate with 80% or greater inhibition; rates 300, 100, 30, 10 g/ha; about 14 days
Procedure: (§1) Tables 5 to 8 summarize results of tests conducted as described below to determine the pre-emergence herbicidal activity, in the form of a GR80 value, of illustrative compounds of this invention. […] Compounds of the invention were typically applied at rates of 300, 100, 30, and 10 g/ha. Where herbicidal activity was evident but 80% inhibition was not achieved at the highest rate tested, an asterisk (*) is shown in the following tables.
(§2) The pre-emergence tests were conducted by the following procedure. Topsoil was sieved to pass through a 1.27 cm screen. Fertilizer was added to the topsoil and the mixture was then sterilized by heating. The topsoil mixture was placed in a pot and compacted to a depth of 1.0 to 1.25 cm from the top of the pot. Seeds of each of several monocotyledonous and dicotyledonous annual plant species were placed on top of the soil. Additional soil was subsequently placed over the seeds to level-fill the pot. A known amount of each test compound dissolved or suspended in an appropriate organic solvent was diluted with a 50:50 mix of acetone and water and applied to the surface of the soil. After treatment the plants were placed in a greenhouse where they received 0.64 cm of overhead irrigation. All subsequent watering consisted of a light overhead mist and/or subirrigation as needed for germination and growth. Tables 5 and 6 below relate to warm season plant species which were placed after pre-emergence treatment in a greenhouse with a 30/21° C. day/night temperature regime. Tables 7 and 8 below relates to cool season plant species placed after pre-emergence treatment in a greenhouse or growth chamber with an 18/13° C. day/night temperature regime.
(§3) Approximately 14 days after planting and treating, the plants were observed and herbicidal efficacy recorded as percent inhibition by comparison with untreated plants.
(§4) The plant species usually regarded as weeds which were utilized in the tests are identified in the tables below according to the following legend, in which “d” indicates a dicotyledonous species and “m” a monocotyledonous species. All monocotyledonous species included in the tests herein are grasses.

POLCO (wild buckwheat) = assay: Pre-emergence herbicidal activity, cool season; format: in vivo, Polygonum convolvulus; conditions: lowest tested rate with 80% or greater inhibition; rates 300, 100, 30, 10 g/ha; about 14 days
Procedure: as §1, §2, §3, §4

SINAR (wild mustard) = assay: Pre-emergence herbicidal activity, cool season; format: in vivo, Sinapis arvensis; conditions: lowest tested rate with 80% or greater inhibition; rates 300, 100, 30, 10 g/ha; about 14 days
Procedure: as §1, §2, §3, §4

[1] = test system: PANMI (wild proso millet); assay: Pre-emergence herbicidal activity, warm season; format: in vivo, Panicum miliaceum; conditions: GR80 = lowest tested rate (300, 100, 30, 10 g/ha) with 80% or greater inhibition; approx. 14 days after treating; 30/21° C.
Procedure: as §1, §2, §3, §4

ECHCG (barnyardgrass) = assay: Pre-emergence herbicidal activity, warm season; format: in vivo, Echinochloa crus-galli; conditions: GR80 = lowest tested rate (300, 100, 30, 10 g/ha) with 80% or greater inhibition; approx. 14 days after treating; 30/21° C.
Procedure: as §1, §2, §3, §4

[2] = test system: VERPE (creeping speedwell); assay: Pre-emergence herbicidal activity, cool season; format: in vivo, Veronica persicaria; conditions: lowest tested rate with 80% or greater inhibition; rates 300, 100, 30, 10 g/ha; about 14 days
Procedure: as §1, §2, §3, §4

STEME (common chickweed) = assay: Pre-emergence herbicidal activity, cool season; format: in vivo, Stellaria media; conditions: lowest tested rate with 80% or greater inhibition; rates 300, 100, 30, 10 g/ha; about 14 days
Procedure: as §1, §2, §3, §4

[3] = test system: AGSST (creeping bentgrass); assay: Pre-emergence herbicidal activity, cool season; format: in vivo, Agrostis stolonifera; conditions: GR80 = lowest tested rate (300, 100, 30, 10 g/ha) with 80% or greater inhibition; approx. 14 days after treating; 18/13° C.
Procedure: as §1, §2, §3, §4

[4] = test system: SORHA (johnsongrass (seedling)); assay: Pre-emergence herbicidal activity, warm season; format: in vivo, Sorghum halepense; conditions: GR80 = lowest tested rate (300, 100, 30, 10 g/ha) with 80% or greater inhibition; approx. 14 days after treating; 30/21° C.
Procedure: as §1, §2, §3, §4

[5] = test system: GALAP (catchweed bedstraw); assay: Pre-emergence herbicidal activity, cool season; format: in vivo, Galium aparine; conditions: lowest tested rate with 80% or greater inhibition; rates 300, 100, 30, 10 g/ha; about 14 days
Procedure: as §1, §2, §3, §4

SETVI (green foxtail) = assay: Pre-emergence herbicidal activity, cool season; format: in vivo, Setaria viridis; conditions: GR80 = lowest tested rate (300, 100, 30, 10 g/ha) with 80% or greater inhibition; approx. 14 days after treating; 18/13° C.
Procedure: as §1, §2, §3, §4

[6] = test system: LAMPU (purple deadnettle); assay: Pre-emergence herbicidal activity, cool season; format: in vivo, Lamium purpureum; conditions: lowest tested rate with 80% or greater inhibition; rates 300, 100, 30, 10 g/ha; about 14 days
Procedure: as §1, §2, §3, §4

[7] = test system: CHEAL (common lambsquarters); assay: Pre-emergence herbicidal activity, warm season; format: in vivo, Chenopodium album; conditions: GR80 = lowest tested rate (300, 100, 30, 10 g/ha) with 80% or greater inhibition; approx. 14 days after treating; 30/21° C.
Procedure: as §1, §2, §3, §4

POROL (common purslane) = assay: Pre-emergence herbicidal activity, warm season; format: in vivo, Portulaca oleracea; conditions: GR80 = lowest tested rate (300, 100, 30, 10 g/ha) with 80% or greater inhibition; approx. 14 days after treating; 30/21° C.
Procedure: as §1, §2, §3, §4

DIGSA (large crabgrass) = assay: Pre-emergence herbicidal activity, warm season; format: in vivo, Digitaria sanguinalis; conditions: GR80 = lowest tested rate (300, 100, 30, 10 g/ha) with 80% or greater inhibition; approx. 14 days after treating; 30/21° C.
Procedure: as §1, §2, §3, §4

SETFA (giant foxtail) = assay: Pre-emergence herbicidal activity, warm season; format: in vivo, Setaria faberi; conditions: GR80 = lowest tested rate (300, 100, 30, 10 g/ha) with 80% or greater inhibition; approx. 14 days after treating; 30/21° C.
Procedure: as §1, §2, §3, §4

SOLNI (black nightshade) = assay: Pre-emergence herbicidal activity, warm season; format: in vivo, Solanum nigrum; conditions: GR80 = lowest tested rate (300, 100, 30, 10 g/ha) with 80% or greater inhibition; approx. 14 days after treating; 30/21° C.
Procedure: as §1, §2, §3, §4

[8] = test system: BRAPP (broadleaf signalgrass); assay: Pre-emergence herbicidal activity, warm season; format: in vivo, Brachiaria platyphylla; conditions: GR80 = lowest tested rate (300, 100, 30, 10 g/ha) with 80% or greater inhibition; approx. 14 days after treating; 30/21° C.
Procedure: as §1, §2, §3, §4

ALOMY (blackgrass) = assay: Pre-emergence herbicidal activity, cool season; format: in vivo, Alopecurus myosuroides; conditions: GR80 = lowest tested rate (300, 100, 30, 10 g/ha) with 80% or greater inhibition; approx. 14 days after treating; 18/13° C.
Procedure: as §1, §2, §3, §4

Compound | Pre-emergence activity GR80, SASKR (SASKR (russian thistle)) | Pre-emergence activity GR80, POLCO (POLCO (wild buckwheat)) | Pre-emergence activity GR80, SINAR (SINAR (wild mustard)) | Pre-emergence activity (GR80) PANMI [1] [g/ha] | Pre-emergence activity (GR80) ECHCG (ECHCG (barnyardgrass)) [g/ha] | Pre-emergence activity GR80, VERPE [2] | Pre-emergence activity GR80, STEME (STEME (common chickweed)) | Pre-emergence activity (GR80) AGSST [3] [g/ha] | Pre-emergence activity (GR80) SORHA [4] [g/ha] | Pre-emergence activity GR80, GALAP [5] | Pre-emergence activity (GR80) SETVI (SETVI (green foxtail)) [g/ha] | Pre-emergence activity GR80, LAMPU [6] | Pre-emergence activity (GR80) CHEAL [7] [g/ha] | Pre-emergence activity (GR80) POROL (POROL (common purslane)) [g/ha] | Pre-emergence activity (GR80) DIGSA (DIGSA (large crabgrass)) [g/ha] | Pre-emergence activity (GR80) SETFA (SETFA (giant foxtail)) [g/ha] | Pre-emergence activity (GR80) SOLNI (SOLNI (black nightshade)) [g/ha] | Pre-emergence activity (GR80) BRAPP [8] [g/ha] | Pre-emergence activity (GR80) ALOMY (ALOMY (blackgrass)) [g/ha]
CN(C)C(=O)n1cnc(S(=O)(=O)C(F)(F)C(F)(F)Br)n1 [Example 73] | 100 g/ha | [empty] | 100 g/ha | 100 | 300 | 100 g/ha | 300 g/ha | 100 | 300 | 100 g/ha | 300 | 300 g/ha | – | – | – | – | – | – | –
CON(C)C(=O)n1cnc(S(=O)(=O)C(F)(F)Br)n1 [Example 45] | [empty] | 100 g/ha | 300 g/ha | – | – | [empty] | 300 g/ha | – | – | [empty] | 300 | [empty] | 300 | – | – | – | – | – | –
C=CCN(C)C(=O)n1cnc(S(=O)(=O)C(F)(F)Cl)n1 [Example 89] | 300 g/ha | 100 g/ha | 300 g/ha | 300 | – | [empty] | 100 g/ha | 100 | – | 300 g/ha | 100 | 100 g/ha | – | 100 | 100 | – | – | – | –
CN(Cc1ccccc1)C(=O)n1cnc(S(=O)(=O)C(F)(F)C(F)F)n1 [Example 68] | [empty] | 300 g/ha | 300 g/ha | 300 | – | [empty] | [empty] | – | – | 300 g/ha | 300 | [empty] | – | – | – | 300 | 300 | – | –
CCN(CC)C(=S)n1cnc(S(=O)(=O)C(F)(F)C(F)(F)Br)n1 [Example 82] | [empty] | 300 g/ha | 300 g/ha | 300 | – | 300 g/ha | 300 g/ha | 300 | 300 | [empty] | 100 | 300 g/ha | 300 | 30 | – | 300 | – | 300 | –
O=C(N1CCOCC1)n1cnc(S(=O)(=O)C(F)(F)Br)n1 [Example 36] | [empty] | [empty] | [empty] | – | – | [empty] | [empty] | – | – | 300 g/ha | – | 300 g/ha | 300 | – | – | – | – | – | –
C#CCN(C)C(=O)n1cnc(S(=O)(=O)C(F)F)n1 [Example 31] | [empty] | [empty] | [empty] | – | – | [empty] | [empty] | – | – | [empty] | – | [empty] | – | – | 300 | – | – | – | –
C=CCN(C)C(=O)n1cnc(S(=O)(=O)C(F)(F)Br)n1 [Example 41] | [empty] | [empty] | [empty] | 300 | – | 100 g/ha | [empty] | 30 | – | [empty] | – | [empty] | – | – | – | – | – | – | 300
C=CCN(C)C(=O)n1cnc(S(=O)(=O)C(F)(F)C(F)F)n1 [Example 65] | [empty] | 100 g/ha | 300 g/ha | 300 | – | 100 g/ha | 300 g/ha | 300 | – | 30 g/ha | 100 | 100 g/ha | 300 | – | – | – | – | – | 100
CN(C(=O)n1cnc(S(=O)(=O)C(F)F)n1)c1ccccc1 [Example 27] | 300 g/ha | 30 g/ha | [empty] | 100 | – | 300 g/ha | [empty] | – | – | 300 g/ha | – | 300 g/ha | 300 | – | – | – | – | – | 300
CN(C)C(=O)n1cnc(S(=O)(=O)C(F)(F)Br)n1 [Example 37] | [empty] | [empty] | [empty] | 300 | 300 | [empty] | 300 g/ha | 100 | 300 | [empty] | – | 300 g/ha | – | 300 | 300 | – | – | – | –
COCCN(C)C(=O)n1cnc(S(=O)(=O)C(F)(F)C(F)F)n1 [Example 64] | 10 g/ha | 100 g/ha | 100 g/ha | 100 | – | 30 g/ha | 100 g/ha | 100 | – | 300 g/ha | 100 | 300 g/ha | – | 300 | 300 | 300 | – | 300 | 300
C#CCN(C)C(=O)n1cnc(S(=O)(=O)C(F)(F)C(F)(F)Br)n1 [Example 78] | 100 g/ha | [empty] | 30 g/ha | – | – | 30 g/ha | [empty] | – | – | [empty] | – | 100 g/ha | – | – | – | – | 300 | – | –
